# Measured values as given in ChEMBL document CHEMBL5584236, “Development of novel bisphenol derivatives with a membrane-targeting mechanism as potent gram-positive antibacterial agents” (Eur J Med Chem, 2024).
# Tests used:
# [1] = system: Staphylococcus aureus; assay: Antibacterial activity against Staphylococcus aureus ATCC29213 assessed as reduction in microbial growth incubated for 22 to 24 hrs by CLSI based broth microdilution method; type: functional; conditions: time 22-24 hrs
# [2] = system: Staphylococcus aureus; assay: Antibacterial activity against methicillin-resistant Staphylococcus aureus N315 assessed as reduction in microbial growth incubated for 22 to 24 hrs by CLSI based broth microdilution method; type: functional; conditions: time 22-24 hrs
# [3] = system: Staphylococcus aureus; assay: Antibacterial activity against methicillin-resistant Staphylococcus aureus NCTC10442 assessed as reduction in microbial growth incubated for 22 to 24 hrs by CLSI based broth microdilution method; type: functional; conditions: time 22-24 hrs
# [4] = system: Escherichia coli; assay: Antibacterial activity against Escherichia coli ATCC25922 assessed as reduction in microbial growth incubated for 22 to 24 hrs by CLSI based broth microdilution method; type: functional; conditions: time 22-24 hrs
# [5] = Hemolytic activity against rabbit RBC incubated for 1 hr by multimode plate reader; type: toxicity, cell-based, Oryctolagus cuniculus, Erythrocyte; conditions: rabbit red blood cells (erythrocytes)
# [6] = system: Staphylococcus aureus; assay: Antibacterial activity against Staphylococcus aureus ATCC25923 assessed as reduction in microbial growth incubated for 22 to 24 hrs by CLSI based broth microdilution method; type: functional; conditions: time 22-24 hrs
# [7] = system: Staphylococcus aureus; assay: Antibacterial activity against Staphylococcus aureus ATCC29213 infected in C57BL6 mouse corneal infection model assessed as log reduction in CFU at 5 % administered topically on corneas for four times in 3 days by MHA plate counting method; type: functional; conditions: time 3 day
# [8] = system: Klebsiella pneumoniae; assay: Antibacterial activity against Klebsiella pneumoniae ATCC10031 assessed as reduction in microbial growth incubated for 22 to 24 hrs by CLSI based broth microdilution method; type: functional; conditions: time 22-24 hrs
# [9] = system: Acinetobacter baumannii; assay: Antibacterial activity against Acinetobacter baumannii R28889 assessed as reduction in microbial growth incubated for 22 to 24 hrs by CLSI based broth microdilution method; type: functional; conditions: time 22-24 hrs
# [10] = system: Acinetobacter baumannii; assay: Antibacterial activity against Acinetobacter baumannii ATCC17978 assessed as reduction in microbial growth incubated for 22 to 24 hrs by CLSI based broth microdilution method; type: functional; conditions: time 22-24 hrs
# [11] = system: Staphylococcus aureus; assay: Drug resistance, ratio of MIC for Staphylococcus aureus ATCC29213 after 13 passages to MIC for Staphylococcus aureus ATCC29213 after initial exposure; type: functional
# [12] = system: Staphylococcus epidermidis; assay: Antibacterial activity against Staphylococcus epidermidis CMCC26069 assessed as reduction in microbial growth incubated for 22 to 24 hrs by CLSI based broth microdilution method; type: functional; conditions: time 22-24 hrs
# [13] = system: Staphylococcus epidermidis; assay: Antibacterial activity against Staphylococcus epidermidis ATCC12228 assessed as reduction in microbial growth incubated for 22 to 24 hrs by CLSI based broth microdilution method; type: functional; conditions: time 22-24 hrs
smiles,measurement,setting,value
COC(=O)[C@H](CCCNC(=N)N)NC(=O)COc1ccc(S(=O)(=O)c2ccc(OC(C)C)cc2)cc1,MIC,[1],> 50 µg/mL
same,MIC,[2],> 50 µg/mL
same,MIC,[3],> 50 µg/mL
same,MIC,[4],> 50 µg/mL
same,HC50 at 1 h,[5],> 200 µg/mL
CC(C)=CCOc1ccc(S(=O)(=O)c2ccc(OCCCNC(=N)N)cc2)cc1,MIC,[1],6.25 µg/mL
same,MIC,[2],3.12 µg/mL
same,MIC,[3],3.12 µg/mL
same,MIC,[4],50 µg/mL
same,HC50 at 1 h,[5],> 200 µg/mL
O=S(=O)(c1ccc(O)cc1)c1ccc(O)cc1,MIC,[1],> 50 µg/mL
same,MIC,[2],> 50 µg/mL
same,MIC,[3],> 50 µg/mL
same,MIC,[4],> 100 µg/mL
same,HC50 at 1 h,[5],> 200 µg/mL
CC(C)=CCOc1ccc(S(=O)(=O)c2ccc(OCCOCCNC(=N)N)cc2)cc1,MIC,[1],6.25 µg/mL
same,MIC,[2],3.12 µg/mL
same,MIC,[3],3.12 µg/mL
same,MIC,[4],50 µg/mL
same,HC50 at 1 h,[5],> 200 µg/mL
COC(=O)[C@H](CCCNC(=N)N)NC(=O)[C@H](CCCNC(=N)N)NC(=O)[C@H](CCCNC(=N)N)NC(=O)COc1ccc(S(=O)(=O)c2ccc(OC/C=C(/C)CCC=C(C)C)cc2)cc1,MIC,[1],0.78 µg/mL
same,MIC,[2],0.78 µg/mL
same,MIC,[3],0.78 µg/mL
same,MIC,[4],6.25 µg/mL
same,HC50 at 1 h,[5],165 µg/mL
CC(C)=CCOc1ccc(S(=O)(=O)c2ccc(OCCCCN)cc2)cc1,MIC,[1],25 µg/mL
same,MIC,[2],6.25 µg/mL
same,MIC,[3],6.25 µg/mL
same,MIC,[4],> 50 µg/mL
same,HC50 at 1 h,[5],> 200 µg/mL
CCOC(=O)COc1ccc(S(=O)(=O)c2ccc(OCC=C(C)C)cc2)cc1,MIC,[1],> 50 µg/mL
same,MIC,[2],> 50 µg/mL
same,MIC,[3],> 50 µg/mL
same,MIC,[4],> 50 µg/mL
same,HC50 at 1 h,[5],> 200 µg/mL
CCNCCCCOc1ccc(S(=O)(=O)c2ccc(OCC=C(C)C)cc2)cc1,MIC,[1],25 µg/mL
same,MIC,[2],25 µg/mL
same,MIC,[3],25 µg/mL
same,MIC,[4],> 50 µg/mL
same,HC50 at 1 h,[5],70.8 µg/mL
COC(=O)[C@H](CCCNC(=N)N)NC(=O)[C@H](CCCNC(=N)N)NC(=O)COc1ccc(S(=O)(=O)c2ccc(OCC=C(C)C)cc2)cc1,MIC,[1],25 µg/mL
same,MIC,[2],6.25 µg/mL
same,MIC,[3],6.25 µg/mL
same,MIC,[4],> 50 µg/mL
same,HC50 at 1 h,[5],> 200 µg/mL
COC(=O)[C@H](CCCNC(=N)N)NC(=O)[C@H](CCCNC(=N)N)NC(=O)[C@H](CCCNC(=N)N)NC(=O)COc1ccc(S(=O)(=O)c2ccc(OCC=C(C)C)cc2)cc1,MIC,[1],12.5 µg/mL
same,MIC,[2],6.25 µg/mL
same,MIC,[3],6.25 µg/mL
same,MIC,[4],> 50 µg/mL
same,HC50 at 1 h,[5],> 200 µg/mL
CN[C@H](CC(C)C)C(=O)N[C@H]1C(=O)N[C@@H](CC(N)=O)C(=O)N[C@H]2C(=O)N[C@H]3C(=O)N[C@H](C(=O)N[C@H](C(=O)O)c4cc(O)cc(O)c4-c4cc3ccc4O)[C@H](O)c3ccc(c(Cl)c3)Oc3cc2cc(c3O[C@@H]2O[C@H](CO)[C@@H](O)[C@H](O)[C@H]2O[C@H]2C[C@](C)(N)[C@H](O)[C@H](C)O2)Oc2ccc(cc2Cl)[C@H]1O [VANCOMYCIN],MIC,[1],0.78 µg/mL
same,MIC,[6],0.78 µg/mL
same,log(activity),[7],4.8
COC(=O)[C@H](CCCNC(=N)N)NC(=O)[C@H](CCCNC(=N)N)NC(=O)[C@H](CCCNC(=N)N)NC(=O)COc1ccc(S(=O)(=O)c2ccc(OC(C)C)cc2)cc1,MIC,[1],> 50 µg/mL
same,MIC,[2],> 50 µg/mL
same,MIC,[3],> 50 µg/mL
same,MIC,[4],> 50 µg/mL
same,HC50 at 1 h,[5],> 200 µg/mL
C=CCCCCCOc1ccc(S(=O)(=O)c2ccc(OCCCCNC(=N)N)cc2)cc1,MIC,[1],1.56 µg/mL
same,MIC,[2],0.78 µg/mL
same,MIC,[3],0.78 µg/mL
same,MIC,[4],> 50 µg/mL
same,HC50 at 1 h,[5],> 200 µg/mL
C=CCOc1ccc(S(=O)(=O)c2ccc(OCC(=O)N[C@@H](CCCNC(=N)N)C(=O)OC)cc2)cc1,MIC,[1],> 50 µg/mL
same,MIC,[2],> 50 µg/mL
same,MIC,[3],> 50 µg/mL
same,MIC,[4],> 50 µg/mL
same,HC50 at 1 h,[5],> 200 µg/mL
CC[C@H](C)[C@H](NC(=O)CN)C(=O)NCC(=O)N[C@@H](C)C(=O)N[C@H](C(=O)N[C@@H](CC(C)C)C(=O)N[C@@H](CCCCN)C(=O)N[C@H](C(=O)N[C@@H](CC(C)C)C(=O)N[C@H](C(=O)N[C@H](C(=O)NCC(=O)N[C@@H](CC(C)C)C(=O)N1CCC[C@H]1C(=O)N[C@@H](C)C(=O)N[C@@H](CC(C)C)C(=O)N[C@H](C(=O)N[C@@H](CO)C(=O)N[C@@H](Cc1c[nH]c2ccccc12)C(=O)N[C@H](C(=O)N[C@@H](CCCCN)C(=O)N[C@@H](CCCNC(=N)N)C(=O)N[C@@H](CCCCN)C(=O)N[C@@H](CCCNC(=N)N)C(=O)N[C@@H](CCC(N)=O)C(=O)N[C@@H](CCC(N)=O)C(N)=O)[C@@H](C)CC)[C@@H](C)CC)[C@@H](C)O)[C@@H](C)O)C(C)C)C(C)C [MELITTIN],MIC,[8],6.25 µg/mL
same,MIC,[9],3.12 µg/mL
same,MIC,[10],3.12 µg/mL
COC(=O)[C@H](CCCNC(=N)N)NC(=O)COc1ccc(S(=O)(=O)c2ccc(OCC=C(C)C)cc2)cc1,MIC,[1],25 µg/mL
same,MIC,[2],12.5 µg/mL
same,MIC,[3],12.5 µg/mL
same,MIC,[4],> 50 µg/mL
same,HC50 at 1 h,[5],200 µg/mL
CCOC(=O)COc1ccc(S(=O)(=O)c2ccc(OC(C)C)cc2)cc1,MIC,[1],> 50 µg/mL
same,MIC,[2],> 50 µg/mL
same,MIC,[3],> 50 µg/mL
same,MIC,[4],> 50 µg/mL
same,HC50 at 1 h,[5],> 200 µg/mL
COC(=O)[C@H](CCCNC(=N)N)NC(=O)COc1ccc(S(=O)(=O)c2ccc(OC/C=C(/C)CCC=C(C)C)cc2)cc1,MIC,[1],> 50 µg/mL
same,MIC,[2],50 µg/mL
same,MIC,[3],50 µg/mL
same,MIC,[4],> 50 µg/mL
same,HC50 at 1 h,[5],> 200 µg/mL
CC(C)=CCOc1ccc(S(=O)(=O)c2ccc(OCCCCN(C)C)cc2)cc1,MIC,[1],25 µg/mL
same,MIC,[2],12.5 µg/mL
same,MIC,[3],12.5 µg/mL
same,MIC,[4],50 µg/mL
same,HC50 at 1 h,[5],67.8 µg/mL
CCN(CC)CCCCOc1ccc(S(=O)(=O)c2ccc(OCC=C(C)C)cc2)cc1,MIC,[1],50 µg/mL
same,MIC,[2],25 µg/mL
same,MIC,[3],25 µg/mL
same,MIC,[4],> 50 µg/mL
same,HC50 at 1 h,[5],69.4 µg/mL
CCn1cc(C(=O)O)c(=O)c2cc(F)c(N3CCNCC3)cc21 [NORFLOXACIN],Ratio,[11],4
CC(C)=CCC/C(C)=C\COc1ccc(S(=O)(=O)c2ccc(OCCCCNC(=N)N)cc2)cc1,MIC,[1],1.56 µg/mL
same,MIC,[2],0.78 µg/mL
same,MIC,[3],0.78 µg/mL
same,MIC,[4],> 50 µg/mL
same,HC50 at 1 h,[5],144 µg/mL
C=CCOc1ccc(S(=O)(=O)c2ccc(OCCCCNC(=N)N)cc2)cc1,MIC,[1],6.25 µg/mL
same,MIC,[2],6.25 µg/mL
same,MIC,[3],6.25 µg/mL
same,MIC,[4],50 µg/mL
same,HC50 at 1 h,[5],> 200 µg/mL
CC(C)Oc1ccc(S(=O)(=O)c2ccc(OCCCCNC(=N)N)cc2)cc1,MIC,[1],12.5 µg/mL
same,MIC,[2],6.25 µg/mL
same,MIC,[3],6.25 µg/mL
same,MIC,[4],50 µg/mL
same,HC50 at 1 h,[5],> 200 µg/mL
CCOC(=O)COc1ccc(S(=O)(=O)c2ccc(OC/C=C(/C)CCC=C(C)C)cc2)cc1,MIC,[1],> 50 µg/mL
same,MIC,[2],> 50 µg/mL
same,MIC,[3],> 50 µg/mL
same,MIC,[4],> 50 µg/mL
same,HC50 at 1 h,[5],> 200 µg/mL
CC(C)=CCOc1ccc(S(=O)(=O)c2ccc(OCCCCNC(=N)N)cc2)cc1,MIC,[1],3.12 µg/mL
same,MIC,[2],1.56 µg/mL
same,MIC,[3],3.12 µg/mL
same,MIC,[4],12.5 µg/mL
same,HC50 at 1 h,[5],> 200 µg/mL
same,MIC,[6],3.12 µg/mL
same,MIC,[12],1.56 µg/mL
same,MIC,[13],1.56 µg/mL
same,MIC,[8],6.25 µg/mL
same,MIC,[9],6.25 µg/mL
same,MIC,[10],6.25 µg/mL
C=CCOc1ccc(S(=O)(=O)c2ccc(OCC(=O)OCC)cc2)cc1,MIC,[1],> 50 µg/mL
same,MIC,[2],> 50 µg/mL
same,MIC,[3],> 50 µg/mL
same,MIC,[4],> 50 µg/mL
same,HC50 at 1 h,[5],> 200 µg/mL
